# Experimental data from ChEMBL document CHEMBL1125118, “Penta- and hexadienoic acid derivatives: a novel series of 5-lipoxygenase inhibitors” (J Med Chem, 1990).
# Key:
# [1] = tested on: Mus musculus; assay: In vivo inhibition of AA induced ear oedema in mice following topical administration.; format: functional
# [2] = target: T1, Cyclooxygenase (Rattus norvegicus, UniProt P35355+Q63921); assay: In vitro for prostaglandin G/H synthase inhibitory activity against rat basophil leukemia type 1 cell homogenates, by measuring the radioactivity of [14C]-PGD2
# T1 sequence (P35355 whole entry): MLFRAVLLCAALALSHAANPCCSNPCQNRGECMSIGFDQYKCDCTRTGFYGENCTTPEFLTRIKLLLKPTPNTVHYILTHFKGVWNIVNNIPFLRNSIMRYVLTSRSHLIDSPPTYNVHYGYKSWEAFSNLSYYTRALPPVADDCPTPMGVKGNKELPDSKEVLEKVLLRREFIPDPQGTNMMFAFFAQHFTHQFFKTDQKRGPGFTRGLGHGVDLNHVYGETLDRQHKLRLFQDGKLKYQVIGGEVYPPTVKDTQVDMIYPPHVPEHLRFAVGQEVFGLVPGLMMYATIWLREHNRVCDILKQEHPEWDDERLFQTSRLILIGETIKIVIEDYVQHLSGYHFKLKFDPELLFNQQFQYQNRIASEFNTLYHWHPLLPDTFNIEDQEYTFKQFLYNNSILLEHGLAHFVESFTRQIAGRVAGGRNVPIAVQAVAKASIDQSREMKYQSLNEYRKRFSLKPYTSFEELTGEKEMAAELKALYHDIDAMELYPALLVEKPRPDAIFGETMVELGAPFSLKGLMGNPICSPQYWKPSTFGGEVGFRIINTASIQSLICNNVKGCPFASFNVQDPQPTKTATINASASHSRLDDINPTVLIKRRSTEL
# T1 sequence (Q63921 whole entry): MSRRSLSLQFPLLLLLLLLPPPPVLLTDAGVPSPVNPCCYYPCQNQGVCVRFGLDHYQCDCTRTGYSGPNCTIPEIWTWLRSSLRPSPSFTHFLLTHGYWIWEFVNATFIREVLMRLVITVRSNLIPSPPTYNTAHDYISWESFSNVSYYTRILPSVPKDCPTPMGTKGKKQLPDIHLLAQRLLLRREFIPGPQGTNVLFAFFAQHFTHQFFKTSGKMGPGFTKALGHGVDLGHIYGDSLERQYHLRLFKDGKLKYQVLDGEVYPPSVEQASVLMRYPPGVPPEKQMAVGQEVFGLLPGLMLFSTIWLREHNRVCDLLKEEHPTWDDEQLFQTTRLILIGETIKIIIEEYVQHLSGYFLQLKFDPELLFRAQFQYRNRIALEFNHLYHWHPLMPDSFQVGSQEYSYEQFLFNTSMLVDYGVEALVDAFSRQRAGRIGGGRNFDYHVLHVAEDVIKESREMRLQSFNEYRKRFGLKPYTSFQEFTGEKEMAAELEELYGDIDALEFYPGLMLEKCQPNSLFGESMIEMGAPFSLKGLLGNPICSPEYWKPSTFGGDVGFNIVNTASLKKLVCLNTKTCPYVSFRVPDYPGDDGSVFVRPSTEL
# [3] = tested on: Mus musculus; assay: In vivo inhibition of ear oedema in mice following p.o. administration.; format: functional; details: po
# [4] = target: T2, Polyunsaturated fatty acid 5-lipoxygenase (Rattus norvegicus, UniProt P12527); assay: Iin vitro inhibition of 5-lipoxygenase activity in rat basophil leukemia type 1(RBL1) cell homogenates, (reduction of [14C]-5-HETE formation)
# T2 sequence (P12527 whole entry): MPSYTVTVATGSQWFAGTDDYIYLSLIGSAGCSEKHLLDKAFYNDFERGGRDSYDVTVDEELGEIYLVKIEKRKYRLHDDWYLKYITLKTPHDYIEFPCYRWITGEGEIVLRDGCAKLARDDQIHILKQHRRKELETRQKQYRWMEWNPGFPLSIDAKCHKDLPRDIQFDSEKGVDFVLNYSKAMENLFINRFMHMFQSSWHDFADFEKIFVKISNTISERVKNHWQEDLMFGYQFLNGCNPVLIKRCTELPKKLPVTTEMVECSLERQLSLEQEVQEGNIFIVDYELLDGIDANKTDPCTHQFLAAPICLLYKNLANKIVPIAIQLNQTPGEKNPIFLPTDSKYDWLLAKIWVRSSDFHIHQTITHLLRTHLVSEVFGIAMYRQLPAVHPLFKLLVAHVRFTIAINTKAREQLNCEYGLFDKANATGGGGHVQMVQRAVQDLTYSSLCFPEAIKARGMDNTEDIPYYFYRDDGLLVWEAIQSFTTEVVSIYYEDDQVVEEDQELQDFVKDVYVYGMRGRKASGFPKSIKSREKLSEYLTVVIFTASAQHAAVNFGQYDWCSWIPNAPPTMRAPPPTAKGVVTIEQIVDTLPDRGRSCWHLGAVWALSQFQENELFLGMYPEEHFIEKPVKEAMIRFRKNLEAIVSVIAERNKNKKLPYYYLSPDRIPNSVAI
# [5] = target: T2, Polyunsaturated fatty acid 5-lipoxygenase; assay: In vitro inhibition of 5-lipoxygenase in rat (peritoneal assay)
# [6] = target: T2, Polyunsaturated fatty acid 5-lipoxygenase; assay: In vitro inhibitory activity against 5-Lipoxygenase in rat by Peritoneal 5-lipoxygenase assay
IC50 [2] [µM],SMILES,ED50 [1] [mg ear-1],ED50 [3] [mg/kg],other results
–,CCOC(=O)C(=O)C=C/C(SCc1ccccc1)=C(\O)OCC,>2,–,–
–,CCOC(=O)C(=O)C=C/C(O)=C(\O)OCC,>2,–,–
–,CCOC(=O)C(=CC=C(C(=O)OCC)N(C)C)Sc1ccccc1,>2,–,–
12,CCO/C(O)=C(/C=CC(=O)C(=O)c1ccccc1)Sc1ccccc1,>2,> 50,IC50 [4]: 2 µM; IC50 [5]: 3 µM
> 50,CCOC(=O)C(=CC=C(SC)C(=O)c1ccccc1)N(C)C,–,–,IC50 [6]: > 50 µM; IC50 [4]: > 50 µM
–,CCO/C(O)=C(/C=CC=O)Sc1ccccc1,2,–,–
–,O=C(O)C(O)=CC=Cc1ccccc1,>5,–,–
–,CCSC(=CC=C(O)C(=O)O)C(=O)O,>0.5,–,–
–,CCOC(=O)C(=O)C=C/C(=C(\O)OCC)c1ccccc1,>2,–,–
–,CC(C)(C)c1cc(/C=C2\CCOC2=O)cc(C(C)(C)C)c1O,0.3,100,–
6,NC1=NN(c2cccc(C(F)(F)F)c2)CC1 [BW-755C],0.08,75,–
–,CCOC(=O)C(=O)C=C/C(Sc1ccccc1)=C(\O)c1ccccc1,>2,–,–
> 50,CC(Cc1ccc(O)c(O)c1)C(C)Cc1ccc(O)c(O)c1 (stereo not given) [NORDIHYDROGUAIARETIC ACID],0.1,> 100,–
–,CC1=NN(CCOc2ccc3ccccc3c2)C(=O)C1 [NAFAZATROM],2,> 100,–
–,CCOC(=O)C(=O)C=C/C(C(=O)c1ccccc1)=C(\O)OCC,>2,–,–

SMILES,IC50 [2] [µM],ED50 [1] [mg ear-1],ED50 [3] [mg/kg],other results
O=c1c(O)c(-c2ccc(O)c(O)c2)oc2cc(O)cc(O)c12 [QUERCETIN],> 50,1,> 100,–
